Experiments:
Human μ-opioid (MOP) = target: T1, Human μ-opioid (MOP) (Homo sapiens, UniProt P35372); assay: Radioligand binding, human μ-opioid (MOP) membranes, FlashPlate, [3H]-Naloxone; conditions: compound at 10 μM; for A7: inhibition of radioligand binding / A7 radioligand binding, percentage inhibition: [3H]-Naloxone; for A7: inhibition of radioligand binding: human MOP membranes
T1 construct: purchased Perkin Elmer Biosignal
Outline: (§1)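 Cloned human receptor membranes were coated onto FlashPlate wells and incubated with radioligand and compound (added from a 0.5 mM DMSO daughter plate) for 1 hour at room temperature in the dark. Scintillation counting gave percent inhibition, with DMSO defining total and reference ligand defining non-specific binding.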

[1] = target: T2, Human melanin-concentrating hormone (MCH1) (Homo sapiens, UniProt Q99705); assay: Radioligand binding, human melanin-concentrating hormone MCH1 membranes, FlashPlate, [125I]-S36057; conditions: compound at 10 μM; for A6: inhibition of radioligand binding: [125I]-S36057, human MCH1 membranes; for A6 radioligand binding, percentage inhibition: [125I]-S36057
T2 construct: purchased Perkin Elmer Biosignal
Outline: as §1

[2] = target: T3, Human neuropeptide Y (NPY-Y1) (Homo sapiens, UniProt P25929); assay: Radioligand binding, human neuropeptide Y NPY-Y1 membranes, FlashPlate, [125I]-PYY; conditions: compound at 10 μM; for A9: inhibition of radioligand binding / A9 radioligand binding, percentage inhibition: [125I]-PYY
T3 construct: purchased Perkin Elmer Biosignal
T3 sequence (P25929 1-384): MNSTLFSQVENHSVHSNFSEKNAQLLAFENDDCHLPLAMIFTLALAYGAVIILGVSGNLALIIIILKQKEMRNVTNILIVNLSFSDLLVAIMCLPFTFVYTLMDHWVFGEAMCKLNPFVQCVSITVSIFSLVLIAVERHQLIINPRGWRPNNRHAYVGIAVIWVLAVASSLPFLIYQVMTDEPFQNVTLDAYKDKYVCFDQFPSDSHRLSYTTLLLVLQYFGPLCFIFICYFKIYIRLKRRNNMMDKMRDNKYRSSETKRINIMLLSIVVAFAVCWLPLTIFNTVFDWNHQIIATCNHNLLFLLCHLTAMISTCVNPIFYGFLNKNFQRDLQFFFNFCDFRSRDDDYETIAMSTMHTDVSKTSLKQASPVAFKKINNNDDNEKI
Outline: as §1

Human δ-opioid (DOP) = target: T4, Human δ-opioid (DOP) (Homo sapiens, UniProt P41143); assay: Radioligand binding, human δ-opioid (DOP) membranes, FlashPlate, [3H]-Bremazocine; conditions: compound at 10 μM; for A1: inhibition of radioligand binding / A1 radioligand binding, percentage inhibition: [3H]-Bremazocine; for A1: inhibition of radioligand binding: human DOP membranes
T4 construct: purchased Perkin Elmer Biosignal
Outline: as §1

Human Melanocortin (MC4) = target: T5, Human Melanocortin (MC4) (Homo sapiens, UniProt P32245); assay: Radioligand binding, human melanocortin MC4 membranes, FlashPlate, [125I]-NDP-αMSH; conditions: compound at 10 μM; for A4: inhibition of radioligand binding / A4 radioligand binding, percentage inhibition: [125I]-NDP-αMSH; for A4: inhibition of radioligand binding: human MC4 membranes
T5 construct: purchased Perkin Elmer Biosignal
Outline: as §1

Human neurokinin (NK1) = target: T6, Human neurokinin (NK1) (Homo sapiens, UniProt P25103); assay: Radioligand binding, human neurokinin NK1 membranes, filtration, [125I]-Substance P; conditions: compound at 10 μM; for A8: inhibition of radioligand binding / A8 radioligand binding, percentage inhibition: [125I]-Substance P; for A8: inhibition of radioligand binding: human NK1 membranes
T6 construct: purchased Perkin Elmer Biosignal
Outline: (§2)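 Membranes from cloned human receptors were incubated with compound and radioligand for 1 hour at room temperature. Bound ligand was collected on 0.3% PEI-soaked filters, washed with cold 50 mM Tris-HCl pH 7.4, and counted by scintillation. Percent inhibition was computed against DMSO totals and reference-ligand nonspecific wells.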

Human Melanocortin (MC3) = target: T7, Human Melanocortin (MC3) (Homo sapiens, UniProt P41968); assay: Radioligand binding, human melanocortin MC3 membranes, FlashPlate, [125I]-NDP-αMSH; conditions: compound at 10 μM; for A3: inhibition of radioligand binding / A3 radioligand binding, percentage inhibition: [125I]-NDP-αMSH; for A3: inhibition of radioligand binding: human MC3 membranes
T7 construct: purchased Perkin Elmer Biosignal
Outline: as §1

Human κ-Opioid (KOP) = target: T8, Human κ-Opioid (KOP) (Homo sapiens, UniProt P41145); assay: Radioligand binding, human κ-opioid (KOP) membranes, filtration, [3H]-Diprenorphine; conditions: compound at 10 μM; for A2: inhibition of radioligand binding / A2 radioligand binding, percentage inhibition: [3H]-Diprenorphine; for A2: inhibition of radioligand binding: human KOP membranes
T8 construct: purchased Perkin Elmer Biosignal
Outline: as §2

Mouse urotensin (mUR2) = target: T9, Mouse urotensin (mUR2) (Mus musculus, UniProt Q8VIH9); assay: Radioligand binding, mouse urotensin mUR2 membranes, FlashPlate, [125I]-Urotensin II; conditions: compound at 10 μM; for A11: inhibition of radioligand binding / A11 radioligand binding, percentage inhibition: [125I]-Urotensin II; for A11: inhibition of radioligand binding: mouse mUR2 membranes
T9 construct: purchased Perkin Elmer Biosignal
T9 sequence (Q8VIH9 1-385): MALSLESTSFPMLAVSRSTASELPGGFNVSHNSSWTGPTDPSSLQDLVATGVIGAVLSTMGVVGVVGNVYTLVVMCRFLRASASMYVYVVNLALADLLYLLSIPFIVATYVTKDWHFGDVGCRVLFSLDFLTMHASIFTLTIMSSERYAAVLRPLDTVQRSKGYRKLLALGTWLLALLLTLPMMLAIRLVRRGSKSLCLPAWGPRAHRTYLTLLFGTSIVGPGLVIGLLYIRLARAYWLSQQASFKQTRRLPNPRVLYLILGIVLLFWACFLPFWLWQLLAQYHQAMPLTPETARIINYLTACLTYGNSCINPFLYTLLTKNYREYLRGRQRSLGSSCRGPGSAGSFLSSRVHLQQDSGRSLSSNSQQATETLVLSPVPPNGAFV
Outline: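 Cloned mouse urotensin (mUR2) receptor membranes from Perkin Elmer Biosignal were immobilized in FlashPlate microplates using a proprietary coating. Each well got 19.5 μl buffer, then 0.5 μl of DMSO, reference ligand, or compound. Adding 5 μl of [125I]-Urotensin II, diluted to 5× final concentration in binding buffer, started binding. Plates were sealed with TopSeal-A and incubated 1 hour at room temperature in the dark. Wells were counted for 30 seconds each on a TopCount after a 60-second delay, and percentage inhibition was calculated.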

Human melanocortin (MC5) = target: T10, Human melanocortin (MC5) (Homo sapiens, UniProt P33032); assay: Radioligand binding, human melanocortin MC5 membranes, FlashPlate, [125I]-NDP-αMSH; conditions: compound at 10 μM; for A5: inhibition of radioligand binding / A5 radioligand binding, percentage inhibition: [125I]-NDP-αMSH; for A5: inhibition of radioligand binding: human MC5 membranes
T10 construct: purchased Perkin Elmer Biosignal
Outline: as §1

Human opioid (ORL1) = target: T11, Human opioid (ORL1) (Homo sapiens, UniProt P41146); assay: Radioligand binding, human opioid ORL1 membranes, FlashPlate, [125I]-Nociceptin; conditions: compound at 10 μM; for A10: inhibition of radioligand binding / A10 radioligand binding, percentage inhibition: [125I]-Nociceptin
T11 construct: purchased Perkin Elmer Biosignal
Outline: as §1

T2 sequence (Q99705 whole entry): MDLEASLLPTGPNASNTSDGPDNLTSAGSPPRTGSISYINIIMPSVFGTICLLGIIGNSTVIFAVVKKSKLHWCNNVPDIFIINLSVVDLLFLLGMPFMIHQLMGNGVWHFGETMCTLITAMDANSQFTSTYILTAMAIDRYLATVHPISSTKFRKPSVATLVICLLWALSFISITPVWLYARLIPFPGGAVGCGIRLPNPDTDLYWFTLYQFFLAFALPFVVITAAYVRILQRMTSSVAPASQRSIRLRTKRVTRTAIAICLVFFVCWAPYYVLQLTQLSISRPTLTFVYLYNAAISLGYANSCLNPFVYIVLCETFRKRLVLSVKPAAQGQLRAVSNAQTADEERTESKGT
T8 sequence (P41145 whole entry): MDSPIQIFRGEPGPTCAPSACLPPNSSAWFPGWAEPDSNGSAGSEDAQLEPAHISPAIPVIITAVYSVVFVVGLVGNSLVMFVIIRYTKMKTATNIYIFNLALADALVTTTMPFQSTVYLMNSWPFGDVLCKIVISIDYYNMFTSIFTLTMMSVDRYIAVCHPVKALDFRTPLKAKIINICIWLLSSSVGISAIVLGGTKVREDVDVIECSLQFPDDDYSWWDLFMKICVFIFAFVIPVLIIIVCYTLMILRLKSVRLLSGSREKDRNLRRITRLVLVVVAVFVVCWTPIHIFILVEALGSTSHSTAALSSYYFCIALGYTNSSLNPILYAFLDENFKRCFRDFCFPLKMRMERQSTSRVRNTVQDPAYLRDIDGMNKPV
T5 sequence (P32245 whole entry): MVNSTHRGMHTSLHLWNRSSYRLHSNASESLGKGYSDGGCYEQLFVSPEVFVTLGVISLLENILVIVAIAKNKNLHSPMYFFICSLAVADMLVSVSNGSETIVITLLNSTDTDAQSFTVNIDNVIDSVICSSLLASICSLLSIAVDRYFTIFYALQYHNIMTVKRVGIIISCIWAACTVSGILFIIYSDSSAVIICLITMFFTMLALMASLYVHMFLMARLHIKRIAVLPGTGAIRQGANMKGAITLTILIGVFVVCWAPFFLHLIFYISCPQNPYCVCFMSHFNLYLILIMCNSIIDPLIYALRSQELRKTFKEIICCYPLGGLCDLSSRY
T6 sequence (P25103 whole entry): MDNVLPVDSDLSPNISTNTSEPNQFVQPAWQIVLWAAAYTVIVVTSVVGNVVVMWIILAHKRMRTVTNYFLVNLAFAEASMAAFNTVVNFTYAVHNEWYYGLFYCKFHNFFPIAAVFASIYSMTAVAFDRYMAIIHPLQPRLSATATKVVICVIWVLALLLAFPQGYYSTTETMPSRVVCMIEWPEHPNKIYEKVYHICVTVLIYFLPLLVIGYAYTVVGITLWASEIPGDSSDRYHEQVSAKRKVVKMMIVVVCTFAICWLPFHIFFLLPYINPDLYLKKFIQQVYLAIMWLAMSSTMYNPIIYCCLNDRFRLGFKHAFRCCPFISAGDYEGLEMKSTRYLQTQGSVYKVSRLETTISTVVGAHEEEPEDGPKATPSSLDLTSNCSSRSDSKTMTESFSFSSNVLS
T7 sequence (P41968 whole entry): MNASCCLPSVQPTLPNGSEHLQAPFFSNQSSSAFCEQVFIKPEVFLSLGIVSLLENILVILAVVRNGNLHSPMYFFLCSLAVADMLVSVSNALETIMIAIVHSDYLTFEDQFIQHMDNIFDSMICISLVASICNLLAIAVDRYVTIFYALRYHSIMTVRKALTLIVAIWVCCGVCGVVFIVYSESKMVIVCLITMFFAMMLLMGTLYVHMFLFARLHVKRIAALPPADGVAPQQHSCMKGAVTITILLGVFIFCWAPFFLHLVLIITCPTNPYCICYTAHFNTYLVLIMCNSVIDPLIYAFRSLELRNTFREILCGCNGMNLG
T1 sequence (P35372 whole entry): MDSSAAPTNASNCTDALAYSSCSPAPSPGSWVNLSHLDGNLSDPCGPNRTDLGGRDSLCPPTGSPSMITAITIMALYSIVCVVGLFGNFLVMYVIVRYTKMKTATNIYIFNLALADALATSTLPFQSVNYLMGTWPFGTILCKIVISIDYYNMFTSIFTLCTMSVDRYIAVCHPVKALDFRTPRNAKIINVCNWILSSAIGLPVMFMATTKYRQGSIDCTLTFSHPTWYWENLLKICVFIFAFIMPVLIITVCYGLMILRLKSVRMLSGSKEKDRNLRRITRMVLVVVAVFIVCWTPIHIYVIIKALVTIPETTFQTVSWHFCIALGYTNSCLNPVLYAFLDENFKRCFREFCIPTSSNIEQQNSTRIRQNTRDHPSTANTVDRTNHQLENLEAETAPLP
T11 sequence (P41146 whole entry): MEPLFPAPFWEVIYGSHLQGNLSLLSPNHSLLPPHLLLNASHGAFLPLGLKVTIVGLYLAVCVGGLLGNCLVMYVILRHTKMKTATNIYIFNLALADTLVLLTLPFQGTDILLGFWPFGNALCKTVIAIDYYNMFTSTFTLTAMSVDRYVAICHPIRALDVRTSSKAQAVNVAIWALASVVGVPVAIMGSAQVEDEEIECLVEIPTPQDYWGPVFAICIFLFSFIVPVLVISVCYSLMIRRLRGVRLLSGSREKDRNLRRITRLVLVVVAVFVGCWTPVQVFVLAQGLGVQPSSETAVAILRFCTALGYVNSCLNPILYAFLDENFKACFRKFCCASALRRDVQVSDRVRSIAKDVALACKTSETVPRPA
T4 sequence (P41143 whole entry): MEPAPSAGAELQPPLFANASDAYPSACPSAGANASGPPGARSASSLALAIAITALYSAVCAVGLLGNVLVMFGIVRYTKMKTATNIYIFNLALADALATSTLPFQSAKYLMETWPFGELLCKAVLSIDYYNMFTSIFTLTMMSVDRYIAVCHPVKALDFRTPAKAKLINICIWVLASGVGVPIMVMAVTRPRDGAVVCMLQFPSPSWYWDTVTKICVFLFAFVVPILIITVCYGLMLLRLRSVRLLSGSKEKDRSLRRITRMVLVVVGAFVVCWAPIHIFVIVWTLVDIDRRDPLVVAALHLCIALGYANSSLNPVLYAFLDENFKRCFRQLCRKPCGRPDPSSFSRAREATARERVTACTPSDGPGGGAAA
T10 sequence (P33032 whole entry): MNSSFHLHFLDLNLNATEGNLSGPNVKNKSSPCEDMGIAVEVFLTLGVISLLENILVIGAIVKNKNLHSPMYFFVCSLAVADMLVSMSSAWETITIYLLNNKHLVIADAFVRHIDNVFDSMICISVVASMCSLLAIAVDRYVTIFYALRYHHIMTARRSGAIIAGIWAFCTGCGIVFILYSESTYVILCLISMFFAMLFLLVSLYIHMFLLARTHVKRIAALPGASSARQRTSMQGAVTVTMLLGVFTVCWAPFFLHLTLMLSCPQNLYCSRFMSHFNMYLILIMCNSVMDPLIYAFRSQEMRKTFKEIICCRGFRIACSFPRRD

Row | Compound | A9: inhibition of radioligand binding ([2]; human NPY-Y1 membranes) | A1: inhibition of radioligand binding (Human δ-opioid (DOP)) | A8: inhibition of radioligand binding (Human neurokinin (NK1)) | A2: inhibition of radioligand binding (Human κ-Opioid (KOP)) | A11: inhibition of radioligand binding (Mouse urotensin (mUR2)) | A5: inhibition of radioligand binding (Human melanocortin (MC5)) | A7 radioligand binding, percentage inhibition (Human μ-opioid (MOP)) | A6 radioligand binding, percentage inhibition [1] | A9 radioligand binding, percentage inhibition [2] | A1 radioligand binding, percentage inhibition (Human δ-opioid (DOP)) | A4 radioligand binding, percentage inhibition (Human Melanocortin (MC4)) | A8 radioligand binding, percentage inhibition (Human neurokinin (NK1)) | A3 radioligand binding, percentage inhibition (Human Melanocortin (MC3)) | A2 radioligand binding, percentage inhibition (Human κ-Opioid (KOP)) | A11 radioligand binding, percentage inhibition (Mouse urotensin (mUR2)) | A5 radioligand binding, percentage inhibition (Human melanocortin (MC5)) | A10 radioligand binding, percentage inhibition (Human opioid (ORL1)) | further results
1 | N=C(N)NCC(=O)NC1C(OCc2ccc(Cl)cc2)OC(COCc2ccc(Cl)cc2)C(O)C1OCc1ccc(-c2ccccc2)cc1 (stereo not shown) [compound 425] | − (“−” indicates less than 50% inhibition at 10 μM) | − (“−” indicates less than 50% inhibition at 10 μM) | + (“+” indicates greater than 50% inhibition at 10 μM) | − (“−” indicates less than 50% inhibition at 10 μM) | − (“−” indicates less than 50% inhibition at 10 μM) | + (“+” indicates greater than 50% inhibition at 10 μM) | – | – | – | – | – | – | – | – | – | – | – | A7: inhibition of radioligand binding (Human μ-opioid (MOP)): − (“−” indicates less than 50% inhibition at 10 μM); A6: inhibition of radioligand binding [1]: + (“+” indicates greater than 50% inhibition at 10 μM); A4: inhibition of radioligand binding (Human Melanocortin (MC4)): + (“+” indicates greater than 50% inhibition at 10 μM); A3: inhibition of radioligand binding (Human Melanocortin (MC3)): + (“+” indicates greater than 50% inhibition at 10 μM); A10: inhibition of radioligand binding (Human opioid (ORL1); human ORL1 membranes): + (“+” indicates greater than 50% inhibition at 10 μM)
2 | CO[C@H]1[C@H](O)[C@@H](COCc2ccc3ccccc3c2)OC(OCCc2ccccc2)[C@@H]1NC(=O)CNC(=N)N (stereo partly shown) [compound 113] | – | – | – | – | – | – | − (“−” indicates less than 50% inhibition at 10 μM) | − (“−” indicates less than 50% inhibition at 10 μM) | − (“−” indicates less than 50% inhibition at 10 μM) | − (“−” indicates less than 50% inhibition at 10 μM) | + (“+” indicates greater than 50% inhibition at 10 μM) | + (“+” indicates greater than 50% inhibition at 10 μM) | − (“−” indicates less than 50% inhibition at 10 μM) | − (“−” indicates less than 50% inhibition at 10 μM) | − (“−” indicates less than 50% inhibition at 10 μM) | + (“+” indicates greater than 50% inhibition at 10 μM) | + (“+” indicates greater than 50% inhibition at 10 μM) | –
3 | CO[C@H]1[C@H](O)[C@@H](COCc2ccccc2)OC(OCc2ccc(-c3ccccc3)cc2)[C@@H]1NC(=O)CCNC(=N)N (stereo partly shown) [compound 59] | – | – | – | – | – | – | – | – | – | – | – | – | – | – | – | – | – | A7 radioligand binding inhibition (Human μ-opioid (MOP); human μ-opioid (MOP) membranes): + (“+” indicates greater than 50% inhibition at 10 μM); A6 radioligand binding inhibition ([1]; human MCH1 membranes): − (“−” indicates less than 50% inhibition at 10 μM); A9 radioligand binding inhibition ([2]; human NPY-Y1 membranes): − (“−” indicates less than 50% inhibition at 10 μM); A1 radioligand binding inhibition (Human δ-opioid (DOP); human δ-opioid (DOP) membranes): − (“−” indicates less than 50% inhibition at 10 μM); A4 radioligand binding inhibition (Human Melanocortin (MC4); human melanocortin MC4 membranes): − (“−” indicates less than 50% inhibition at 10 μM); A8 radioligand binding inhibition (Human neurokinin (NK1); human neurokinin NK1 membranes): + (“+” indicates greater than 50% inhibition at 10 μM); A3 radioligand binding inhibition (Human Melanocortin (MC3); human melanocortin MC3 membranes): − (“−” indicates less than 50% inhibition at 10 μM); A2 radioligand binding inhibition (Human κ-Opioid (KOP); human κ-opioid (KOP) membranes): + (“+” indicates greater than 50% inhibition at 10 μM); A11 radioligand binding inhibition (Mouse urotensin (mUR2); mouse urotensin mUR2 membranes): − (“−” indicates less than 50% inhibition at 10 μM); A5 radioligand binding inhibition (Human melanocortin (MC5); human melanocortin MC5 membranes): + (“+” indicates greater than 50% inhibition at 10 μM); A10 radioligand binding inhibition (Human opioid (ORL1); human ORL1 membranes): − (“−” indicates less than 50% inhibition at 10 μM)
4 | CO[C@H]1[C@H](O)[C@@H](COCc2cccc(O)c2)OC(OCc2ccc(-c3ccccc3)cc2)[C@@H]1NC(=O)CCNC(=N)N (stereo partly shown) [compound 147] | – | – | – | – | – | – | + (“+” indicates greater than 50% inhibition at 10 μM) | + (“+” indicates greater than 50% inhibition at 10 μM) | − (“−” indicates less than 50% inhibition at 10 μM) | − (“−” indicates less than 50% inhibition at 10 μM) | + (“+” indicates greater than 50% inhibition at 10 μM) | + (“+” indicates greater than 50% inhibition at 10 μM) | − (“−” indicates less than 50% inhibition at 10 μM) | + (“+” indicates greater than 50% inhibition at 10 μM) | − (“−” indicates less than 50% inhibition at 10 μM) | + (“+” indicates greater than 50% inhibition at 10 μM) | − (“−” indicates less than 50% inhibition at 10 μM) | –
5 | NCCCC(=O)NC1C(OCc2ccc3ccccc3c2)OC(COCc2ccc3ccccc3c2)C(O)C1OCc1ccc2ccccc2c1 (stereo not shown) [compound 393] | − (“−” indicates less than 50% inhibition at 10 μM) | − (“−” indicates less than 50% inhibition at 10 μM) | + (“+” indicates greater than 50% inhibition at 10 μM) | − (“−” indicates less than 50% inhibition at 10 μM) | − (“−” indicates less than 50% inhibition at 10 μM) | + (“+” indicates greater than 50% inhibition at 10 μM) | – | – | – | – | – | – | – | – | – | – | – | A7: inhibition of radioligand binding (Human μ-opioid (MOP); 10 µM): − (“−” indicates less than 50% inhibition at 10 μM); A6: inhibition of radioligand binding ([1]; 10 µM): − (“−” indicates less than 50% inhibition at 10 μM); A4: inhibition of radioligand binding (Human Melanocortin (MC4); 10 µM): + (“+” indicates greater than 50% inhibition at 10 μM); A3: inhibition of radioligand binding (Human Melanocortin (MC3); 10 µM): + (“+” indicates greater than 50% inhibition at 10 μM); A10: inhibition of radioligand binding (Human opioid (ORL1); human ORL1 membranes, 10 µM): − (“−” indicates less than 50% inhibition at 10 μM)

— patent US20080009418A1, “Selective Inhibitors” (Alchemia LTD., priority 2004, published 2008)
